# Source: patent US20080221134A1, “8-ALKYNYLXANTHINES AND DERIVATIVES” (priority 2006, published 2008)
# Columns and labels:
# Adenosine A1 = biological target: T1, Adenosine A1 (Homo sapiens, UniProt P30542); assay: Functional assay (luciferase reporter), inhibition of A1 adenosine receptor; type: cell-based; set-up: expressed in transfected cells; host or cells: CHO-DUKX-SRE-Luci-A1-44 (CHO-DUKX, vector pCineo); details: for A1 AR Imax: Imax in % of the corresponding antagonist (CPX); for IC50: CHO-DUKX-SRE-Luci-A1-44 cells, 3.5 μM ADAC, read-out: A1 AR IC50; for Ki: Ki=IC50/(1+agonist concentration/EC50), read-out: A1 AR Ki
# T1 sequence (P30542 1-326): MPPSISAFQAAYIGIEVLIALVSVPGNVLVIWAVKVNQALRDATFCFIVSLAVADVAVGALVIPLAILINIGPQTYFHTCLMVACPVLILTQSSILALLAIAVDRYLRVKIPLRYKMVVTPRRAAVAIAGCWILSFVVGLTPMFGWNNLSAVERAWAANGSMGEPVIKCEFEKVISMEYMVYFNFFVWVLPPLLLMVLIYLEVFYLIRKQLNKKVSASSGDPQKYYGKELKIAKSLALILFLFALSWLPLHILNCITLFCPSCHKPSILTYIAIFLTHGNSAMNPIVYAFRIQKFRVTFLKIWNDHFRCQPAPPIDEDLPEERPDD
# rats = assay: Modified Irwin test (FOB, SAC, FU); type: in vivo, rat; set-up: key to Hypersensitivity / Temperature / Respiration / Tremor / Stereotypies / Patterns Activity / Motor Coordination / Catalepsy: +++ = very strong effect.; ++ = strong effect.; + = average effect.; 0 = no effect.; − = negative effect; details: modified Irwin test, 0.01-30 mg/kg, compressed outcome
# Description: In this study the compounds of the present invention were screened for basal behavioural, autonomic, neurological and toxicological side-effects in rats. For this purpose, a functional observational battery (FOB) in form of an Irwin test (Irwin S., Psychopharmacologia, 1968, 13, 222; 1968; Warburton D. M. Psychopharmacology, 2002, 163, 4; Haggerty G. C. et al., J. Amer. Coll. Toxicol., 1991, 10, 677; Mattsson J. L. et al., J. Amer. Coll. Toxicol., 1996, 15, 239, all references are herein incorporated by reference) modified and validated by the Test Facility was used. Each test compound was tested at eight doses (0.01, 0.03, 0.1, 0.3, 1.0, 3.0, 10.0 and 30.0 mg/kg). All compounds were dissolved in DMSO (administration volume 1 ml/kg). Each dose group included three animals. Two vehicle groups (DMSO and Labrasol) served as negative controls.
# At the first day of each test week all test compound solutions necessary for the test (1-2 weeks) were prepared by means of one dilution series starting with the highest concentration. All test compounds dissolved in DMSO were administered in a volume of 1 ml/kg. DMSO-containing solutions were stored at −18° C. All solutions were melted for administration at room temperature 16-20 hours before the start of the test.
# Study design and time schedule:
# 4-7 days: Acclimatization and handling of the animals 1 day: Test day with • (a) Four repeated functional observational battery (FOB): 30 min, 60 min, 120 min, 180 min following compound administration • (b) Short animal check (SAC): 300 min following compound administration 1 day: Follow-up observation (FU): • 24 h (1440 min) following compound administration.
# In all experimental parts, an experienced ethologist used lists of predefined methods and behavioural parameters in order to rate the behaviour of the animal (see table 7 for functional observational battery (FOB), table 8 for short animal check (SAC) and table 9 for follow-up observation (FU).
# A statistical evaluation of the data was performed that enabled an assessment of the compound's effects on each parameter. Dose-response relationships are not necessarily linear. It was not clear a priori whether the response would be dose-dependent or whether low, medium or high dose effects would occur. Therefore, the data were correlated against a set of different numeric models of theoretical dose-response curves. For this kind of evaluation the measurement times were not differentiated. An average value over all measurement times was calculated for each animal. This value was taken as one measurement within the observation vector. The complete set of parameters measured for the animal (each one averaged over time) formed the observation vector. Each dose was then represented by three observation vectors (3 animals per dose). The effects of all doses were compared with vehicle (DMSO) as the observation vectors for the zero dose. A common pool of 24 animals for the zero dose was used for all compounds to be tested. For each test compound the obtained values for each parameter together with values from the pool of vehicle-treated (DMSO) animals were then correlated with theoretical dose-response models (analysis profiles). Since 8 doses were be used, there were 8 models, each assuming that the maximum compound effect occurred at one of these doses. Effects of other doses were assumed to be attenuated with a linearly descending slope of the theoretical curve. Correlation values and statistical significance of regression were then calculated. An error probability of p<0.05 (two-tailed testing) was taken as significance level. Non-significant regressions were neglected. In consequence, each parameter was assessed as not affected or affected by the compound in a dose-response relationship according to type 1 (low dose effect) up to type 8 (high dose effect). Dose response is maximal for the effect with the greatest absolute correlation coefficient. […]
# Adenosine A2A = Adenosine A2A (Homo sapiens, UniProt P29274); assay: Functional assay (luciferase reporter), inhibition of A2A adenosine receptor; type: cell-based; set-up: expressed in transfected cells; host or cells: CHO-DUKX-CRE-A2A-19 (CHO-DUKX, vector pCineo); details: for IC50: CHO-DUKX-CRE-A2A-19 cells, 60 nM NECA, read-out: A2A AR IC50; for A2A AR Imax: Imax in % of the corresponding antagonist; for Ki: Ki=IC50/(1+agonist concentration/EC50), read-out: A2A AR Ki
# [1] = biological target: T2, A1-adenosine receptor human recombinant (Homo sapiens, UniProt P30542); assay: Radioligand binding assay 1, human recombinant A1 adenosine receptor; details: [3H]CCPA
# T2 construct: expressed in transfected cells
# T2 sequence (P30542 1-326): T1 sequence (P30542 1-326)
# Description: (§1) Rat brain preparations were used for A1- and A2A adenosine receptor (AR) and human recombinant cell samples for A1-, A2A- and A3 adenosine receptor radioligand binding studies. Affinity and selectivity was tested in displacement experiments with following radioligands: [^3H]CCPA for A1-adenosine receptors, [^3H]MSX-2 for A2A-receptors and [^3H]PSB-11 for A3-receptors. Results of these experiments are depicted in table 2b (human data) and table 2a (rat data). Radioligand binding test systems are e.g. generally described by Muller et al., Curr. Pharm. Des., 1996, 2, 501 and Weyler et al., ChemMedChem 2006, 1, 891 and references cited therein) These documents are incorporated herein by reference.
# [2] = biological target: T3, A2A-adenosine receptor human recombinant (Homo sapiens, UniProt P29274); assay: Radioligand binding assay 1, human recombinant A2A adenosine receptor; details: human recombinant, [3H]MSX-2; read-out: A2A-adenosine receptor human recombinant [3H] MSX-2 Ki
# T3 construct: expressed in transfected cells
# Description: as §1
# Sequence of Adenosine A2A (P29274 whole entry): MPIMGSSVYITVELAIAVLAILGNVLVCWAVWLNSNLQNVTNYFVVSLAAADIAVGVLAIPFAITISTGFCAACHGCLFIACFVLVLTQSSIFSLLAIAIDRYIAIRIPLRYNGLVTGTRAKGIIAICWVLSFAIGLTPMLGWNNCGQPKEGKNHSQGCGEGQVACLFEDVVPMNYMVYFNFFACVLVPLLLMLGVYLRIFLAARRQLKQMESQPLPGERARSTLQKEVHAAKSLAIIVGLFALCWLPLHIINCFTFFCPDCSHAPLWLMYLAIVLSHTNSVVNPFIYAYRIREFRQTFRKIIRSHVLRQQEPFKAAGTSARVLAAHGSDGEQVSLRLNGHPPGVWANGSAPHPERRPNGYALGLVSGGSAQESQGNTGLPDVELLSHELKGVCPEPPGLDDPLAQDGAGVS
# T3 sequence (P29274 whole entry): as above
SMILES,Ki [1],Ki [2],further results
"CCCn1c(=O)c2[nH]c(C3CCCC3)nc2n(CCC)c1=O [CPX, 8-Cyclopentyl 1,3-diprophylxanthine, reference compound]",,,A1 AR Imax (Adenosine A1): 100%
C#CCn1c(=O)c2c(nc(C#Cc3cccc(OC)c3)n2C)n(CCCO)c1=O [drawing 626],,,Catalepsy (rats): 0; Hypersensitivity (rats): +; Motor Coordination (rats): 0; Patterns Activity (rats): +; Respiration (rats): ++; Stereotypies (rats): 0; Temperature (rats): 0; Tremor (rats): 0
C#CCn1c(=O)c2c(nc(C#Cc3cccc(OC)c3)n2C)n(CCCO)c1=O [drawing 620],,,IC50 (Adenosine A2A): 900 nM; A2A AR Imax (Adenosine A2A): 117%; Ki (Adenosine A2A): 82 nM; IC50 (Adenosine A1): 1700 nM; A1 AR Imax (Adenosine A1): 90%; Ki (Adenosine A1): 370 nM
C#CCn1c(=O)c2c(nc(C#Cc3ccc(OC)c(OC)c3)n2C)n(CCCO)c1=O [drawing 622],,,IC50 (Adenosine A2A): 300 nM; A2A AR Imax (Adenosine A2A): 117%; Ki (Adenosine A2A): 26 nM; IC50 (Adenosine A1): 1800 nM; A1 AR Imax (Adenosine A1): 92%; Ki (Adenosine A1): 401 nM
C#CCn1c(=O)c2c(nc(C#Cc3cccc(OC)c3)n2C)n(C)c1=O [drawing 553],> 10000 nM,608 ± 111 nM,
C#CCn1c(=O)c2c(nc(C#Cc3ccc(OC)c(OC)c3)n2C)n(CC)c1=O [drawing 618],,,IC50 (Adenosine A2A): 200 nM; A2A AR Imax (Adenosine A2A): 97%; Ki (Adenosine A2A): 23 nM; IC50 (Adenosine A1): 3900 nM; A1 AR Imax (Adenosine A1): 49%; Ki (Adenosine A1): 854 nM
C#CCn1c(=O)c2c(nc(C#Cc3ccc(OC)c(OC)c3)n2C)n(CCCO)c1=O [drawing 625],,,Catalepsy (rats): 0; Hypersensitivity (rats): 0; Motor Coordination (rats): −; Patterns Activity (rats): ++; Respiration (rats): +++; Stereotypies (rats): +; Temperature (rats): −; Tremor (rats): +
C#CCn1c(=O)c2c(nc(C#Cc3ccc(OC)c(OC)c3)n2C)n(CC)c1=O [drawing 624],,,Catalepsy (rats): 0; Hypersensitivity (rats): ++; Motor Coordination (rats): 0; Patterns Activity (rats): +++; Respiration (rats): +++; Stereotypies (rats): ++; Temperature (rats): +; Tremor (rats): 0
C#CCn1c(=O)c2c(nc(C#Cc3cccc(OC)c3)n2C)n(CC(O)CO)c1=O (centres unmarked) [drawing 569],> 3000 nM,175 ± 44 nM,
C#CCn1c(=O)c2c(nc(C#Cc3ccc(OC)c(OC)c3)n2C)n(CCN(C)C)c1=O [drawing 568],> 20000 nM,51.7 ± 8.7 nM,
C#CCn1c(=O)c2c(nc(C#Cc3cccc(C)c3)n2C)n(C)c1=O [drawing 555],> 10000 nM,225 ± 52 nM,
C#CCn1c(=O)c2c(nc(C#Cc3ccc(OC)c(OC)c3)n2C)n(C)c1=O [drawing 554],> 3000 nM,36.4 ± 0.6 nM,
C#CCn1c(=O)c2c(nc(C#Cc3cccc(C)c3)n2C)n(CC)c1=O [drawing 566],> 3000 nM,89.7 ± 16.1 nM,

# The next lines start with results.
Ki [1],Ki [2],SMILES,further results
> 1000 nM,8.4 ± 6.7 nM,C#CCn1c(=O)c2c(nc(C#Cc3ccc(OC)c(OC)c3)n2C)n(Cc2ccoc2)c1=O [drawing 583],
≥ 1000 nM,200 ± 99 nM,C#CCn1c(=O)c2c(nc(C#Cc3ccc(OC)c(OC)c3)n2C)n(CC(C)C)c1=O [drawing 585],
> 1000 nM,32.2 ± 20.5 nM,C#CCn1c(=O)c2c(nc(C#Cc3ccc(OC)c(OC)c3)n2C)n(CC#N)c1=O [drawing 576],
> 1000 nM,38.2 ± 8.5 nM,C#CCn1c(=O)c2c(nc(C#Cc3ccc(OC)c(OC)c3)n2C)n(CC(=O)OC)c1=O [drawing 598],
> 1000 nM,83.4 ± 26.5 nM,C#CCn1c(=O)c2c(nc(C#Cc3ccc(OCC)c(OCC)c3)n2C)n(CC)c1=O [drawing 573],
> 1000 nM,55.3 ± 4.3 nM,C#CCn1c(=O)c2c(nc(C#Cc3ccc(OC)c(OC)c3)n2C)n(CCOC)c1=O [drawing 574],
> 1000 nM,226 ± 62 nM,C#CCn1c(=O)c2c(nc(C#Cc3cccc(OCCO)c3)n2C)n(C)c1=O [drawing 557],
> 1000 nM,58 ± 13.3 nM,C#CCn1c(=O)c2c(nc(C#Cc3ccc(OC)c(OC)c3)n2C)n(CCCC#N)c1=O [drawing 582],
> 1000 nM,62.7 ± 10.7 nM,C#CCn1c(=O)c2c(nc(C#Cc3ccc(OC)c(OC)c3)n2C)n(CC(O)CO)c1=O (centres unmarked) [drawing 595],
1740 ± 546 nM,11.6 ± 2.1 nM,C#CCn1c(=O)c2c(nc(C#Cc3cccc(OCCCN(C)C)c3)n2C)n(C)c1=O [drawing 558],
> 1000 nM,28.9 ± 1.3 nM,C#CCn1c(=O)c2c(nc(C#Cc3cccc(OCCOC)c3)n2C)n(C)c1=O [drawing 559],
> 1000 nM,738 ± 146 nM,C#CCn1c(=O)c2c(nc(C#Cc3ccc(Cl)c(Cl)c3)n2C)n(CC)c1=O [drawing 597],
> 1000 nM,59.8 ± 35.7 nM,C#CCn1c(=O)c2c(nc(C#Cc3ccc(OC)c(OC)c3)n2C)n(CCO)c1=O [drawing 575],
> 1000 nM,123 ± 62 nM,C#CCn1c(=O)c2c(nc(C#Cc3ccc(OC)c(OC)c3)n2C)n(CCCOC)c1=O [drawing 581],
> 1000 nM,14 ± 4.1 nM,C#CCn1c(=O)c2c(nc(C#Cc3ccc(OC)c(OC)c3)n2C)n(CC(C)O)c1=O (centres unmarked) [drawing 578],
> 1000 nM,30.8 ± 4.9 nM,C#CCn1c(=O)c2c(nc(C#Cc3ccc(OC)c(OC)c3)n2C)n(CCF)c1=O [drawing 587],
> 1000 nM,17.7 ± 0.7 nM,C#CCn1c(=O)c2c(nc(C#Cc3ccc(OC)c(OC)c3)n2C)n(CC)c1=O [drawing 567],
